What follows are compounds tested against cloned human NR1/NR2B ion channels (Homo sapiens (Human), UniProt Q05586+Q13224) (assay: HNR2BC: effects of test articles on cloned human NR1/NR2B ion channels expressed in mammalian cells (FLIPR calcium flux)). Conditions: cloned human NR1/NR2B ion channels, Table 5.
Type: cell-based
Procedure, shortened: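 Compounds were added to dye-loaded cells for 5 min with fluorescence monitored for agonism, followed by co-agonists (glutamate ~EC80, glycine 10 μM saturating) for 5 min. Cells stably expressed inducible human NR1/NR2B, and the buffer was pH 7.4. The FLIPR Ca2+ flux signal was normalized against control wells.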

Sequence of cloned human NR1/NR2B ion channels (Q13224 27-1484, other chains not shown): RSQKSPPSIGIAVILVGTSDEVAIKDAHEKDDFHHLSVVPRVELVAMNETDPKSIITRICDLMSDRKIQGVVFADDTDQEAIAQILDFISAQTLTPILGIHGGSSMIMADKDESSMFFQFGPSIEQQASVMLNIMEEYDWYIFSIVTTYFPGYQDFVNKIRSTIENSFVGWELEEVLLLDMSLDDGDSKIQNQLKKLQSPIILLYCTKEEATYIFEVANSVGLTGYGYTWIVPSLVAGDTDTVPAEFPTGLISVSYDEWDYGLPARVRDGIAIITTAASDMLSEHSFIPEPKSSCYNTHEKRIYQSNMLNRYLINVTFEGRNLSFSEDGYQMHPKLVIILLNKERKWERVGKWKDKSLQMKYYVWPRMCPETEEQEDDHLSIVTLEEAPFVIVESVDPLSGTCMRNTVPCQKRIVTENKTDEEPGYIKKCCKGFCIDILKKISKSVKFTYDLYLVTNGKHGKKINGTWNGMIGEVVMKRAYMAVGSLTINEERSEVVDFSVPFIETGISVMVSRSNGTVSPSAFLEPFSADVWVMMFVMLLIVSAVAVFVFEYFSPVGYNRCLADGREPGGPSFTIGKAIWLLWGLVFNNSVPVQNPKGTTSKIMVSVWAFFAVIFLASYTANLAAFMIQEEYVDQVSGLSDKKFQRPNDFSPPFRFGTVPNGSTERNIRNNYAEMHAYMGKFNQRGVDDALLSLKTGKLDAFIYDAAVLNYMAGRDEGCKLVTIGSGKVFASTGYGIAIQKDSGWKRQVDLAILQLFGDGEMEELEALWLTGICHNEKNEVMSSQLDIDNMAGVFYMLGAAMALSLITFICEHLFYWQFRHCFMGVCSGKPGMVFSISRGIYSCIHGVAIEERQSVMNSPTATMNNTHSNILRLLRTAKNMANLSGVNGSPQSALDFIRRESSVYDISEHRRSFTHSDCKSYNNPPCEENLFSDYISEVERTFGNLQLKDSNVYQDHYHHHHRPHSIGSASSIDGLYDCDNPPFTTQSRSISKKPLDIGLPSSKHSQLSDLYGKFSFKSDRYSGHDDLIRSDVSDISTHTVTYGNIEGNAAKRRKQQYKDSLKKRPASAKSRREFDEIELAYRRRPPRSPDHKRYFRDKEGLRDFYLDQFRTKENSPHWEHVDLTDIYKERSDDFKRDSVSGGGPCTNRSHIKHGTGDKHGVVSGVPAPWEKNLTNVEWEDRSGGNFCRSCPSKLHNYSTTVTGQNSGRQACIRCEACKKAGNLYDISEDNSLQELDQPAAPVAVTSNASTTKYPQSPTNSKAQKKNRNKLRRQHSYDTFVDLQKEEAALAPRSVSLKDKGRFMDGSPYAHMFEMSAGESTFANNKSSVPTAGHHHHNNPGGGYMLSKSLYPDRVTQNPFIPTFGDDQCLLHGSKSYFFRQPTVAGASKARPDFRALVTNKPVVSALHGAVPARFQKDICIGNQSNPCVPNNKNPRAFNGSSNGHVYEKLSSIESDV

Compound	IC50
CN(C)C(=O)Cn1cc(Cl)c2ncc(-c3cccc(F)c3)cc21 [Example 531, 2-[3-Chloro-6-(3-fluorophenyl)pyrrolo[3,2-b]pyridin-1-yl]-N,N-dimethyl-acetamide]	50.1 nM
CN(C)C(=O)Cn1cc(Cl)c2ncc(-c3cccc(Cl)c3)cc21 [Example 534, 2-[3-Chloro-6-(3-chlorophenyl)pyrrolo[3,2-b]pyridin-1-yl]-N,N-dimethyl-acetamide]	31.6 nM
O=C(Cn1cc(Cl)c2ncc(-c3ccccc3F)cc21)N1CC(F)C1 [Example 535, 2-[3-Chloro-6-(2-fluorophenyl)pyrrolo[3,2-b]pyridin-1-yl]-1-(3-fluoroazetidin-1-yl)ethanone]	200 nM
Cc1cccc(-c2cnc3c(Cl)cn(CC(=O)N4CC(F)C4)c3c2)c1F [Example 536, 2-[3-Chloro-6-(2-fluoro-3-methyl-phenyl)pyrrolo[3,2-b]pyridin-1-yl]-1-(3-fluoroazetidin-1-yl)ethanone]	25.1 nM
O=C(Cn1cc(Cl)c2ncc(-c3cc(F)cc(F)c3)cc21)N1CC(F)C1 [Example 537, 2-[3-Chloro-6-(3,5-difluorophenyl)pyrrolo[3,2-b]pyridin-1-yl]-1-(3-fluoroazetidin-1-yl)ethanone]	12.6 nM
O=C(Cn1cc(Cl)c2ncc(-c3cccc(C(F)(F)F)c3F)cc21)N1CC(F)C1 [Example 538, 2-[3-Chloro-6-[2-fluoro-3-(trifluoromethyl)phenyl]pyrrolo[3,2-b]pyridin-1-yl]-1-(3-fluoroazetidin-1-yl)ethanone]	79.4 nM
Cc1c(F)ccc(-c2cnc3c(Cl)cn(CC(=O)N4CC(F)C4)c3c2)c1F [Example 539, 2-[3-Chloro-6-(2,4-difluoro-3-methyl-phenyl)pyrrolo[3,2-b]pyridin-1-yl]-1-(3-fluoroazetidin-1-yl)ethanone]	25.1 nM
O=C(Cn1cc(Cl)c2ncc(-c3cccc(Cl)c3F)cc21)N1CC(F)C1 [Example 541, 2-[3-Chloro-6-(3-chloro-2-fluoro-phenyl)pyrrolo[3,2-b]pyridin-1-yl]-1-(3-fluoroazetidin-1-yl)ethanone]	39.8 nM
CCc1cccc(-c2cnc3c(Cl)cn(CC(=O)N4CC(F)C4)c3c2)c1 [Example 542, 2-[3-Chloro-6-(3-ethylphenyl)pyrrolo[3,2-b]pyridin-1-yl]-1-(3-fluoroazetidin-1-yl)ethanone]	31.6 nM
O=C(Cn1cc(Cl)c2ncc(-c3cccc(F)c3)cc21)N1CC(F)C1 [Example 543, 2-[3-Chloro-6-(3-fluorophenyl)pyrrolo[3,2-b]pyridin-1-yl]-1-(3-fluoroazetidin-1-yl)ethanone]	20 nM
CN(C)C(=O)Cn1cc(Cl)c2ncc(-c3cccc(Cl)c3F)cc21 [Example 544, 2-[3-Chloro-6-(3-chloro-2-fluoro-phenyl)pyrrolo[3,2-b]pyridin-1-yl]-N,N-dimethyl-acetamide]	31.6 nM
O=C(Cn1cc(Cl)c2ncc(-c3cccc(Cl)c3)cc21)N1CC(F)C1 [Example 545, 2-[3-Chloro-6-(3-chlorophenyl)pyrrolo[3,2-b]pyridin-1-yl]-1-(3-fluoroazetidin-1-yl)ethanone]	12.6 nM
O=C(Cn1cc(Cl)c2ncc(-c3cccc(C(F)F)c3)cc21)N1CC(F)C1 [Example 546, 2-[3-Chloro-6-[3-(difluoromethyl)phenyl]pyrrolo[3,2-b]pyridin-1-yl]-1-(3-fluoroazetidin-1-yl)ethanone]	39.8 nM
Cc1cccc(-c2cnc3c(F)c(C)n(CC(=O)N4CCC4)c3c2)c1 [Example 547, 1-(Azetidin-1-yl)-2-[3-fluoro-2-methyl-6-(m-tolyl)pyrrolo[3,2-b]pyridin-1-yl]ethanone]	398 nM
Cc1cn(CC(=O)N(C)C)c2cc(-c3ccc(F)c(F)c3)cnc12 [Example 549, 2-[6-(3,4-Difluorophenyl)-3-methyl-pyrrolo[3,2-b]pyridin-1-yl]-N,N-dimethyl-acetamide]	79.4 nM
Cc1cccc(-c2cnc3c(C)cn(CC(=O)N4CC(F)C4)c3c2)c1 [Example 550, 1-(3-Fluoroazetidin-1-yl)-2-[3-methyl-6-(m-tolyl)pyrrolo[3,2-b]pyridin-1-yl]ethanone]	126 nM
Cc1cn(CC(=O)N2CC(F)C2)c2cc(-c3ccc(F)c(F)c3)cnc12 [Example 551, 2-[6-(3,4-Difluorophenyl)-3-methyl-pyrrolo[3,2-b]pyridin-1-yl]-1-(3-fluoroazetidin-1-yl)ethanone]	63.1 nM
Cc1cn(CC(=O)N(C)C)c2cc(-c3cccc(C(F)(F)F)c3)cnc12 [Example 553, N,N-Dimethyl-2-[3-methyl-6-[3-(trifluoromethyl)phenyl]pyrrolo[3,2-b]pyridin-1-yl]acetamide]	79.4 nM
Cc1cn(CC(=O)N2CC(F)C2)c2cc(-c3cccc(C(F)(F)F)c3)cnc12 [Example 554, 1-(3-Fluoroazetidin-1-yl)-2-[3-methyl-6-[3-(trifluoromethyl)phenyl]pyrrolo[3,2-b]pyridin-1-yl]ethanone]	200 nM
Cc1cn(CC(=O)N(C)C)c2cc(-c3cc(F)cc(F)c3)cnc12 [Example 555, 2-[6-(3,5-Difluorophenyl)-3-methyl-pyrrolo[3,2-b]pyridin-1-yl]-N,N-dimethyl-acetamide]	63.1 nM
Cc1cn(CC(=O)N2CCC2)c2cc(-c3cc(F)cc(F)c3)cnc12 [Example 556, 1-(Azetidin-1-yl)-2-[6-(3,5-difluorophenyl)-3-methyl-pyrrolo[3,2-b]pyridin-1-yl]ethanone]	398 nM
CCN(C)C(=O)Cn1cc(C)c2ncc(-c3cc(F)cc(F)c3)cc21 [Example 557, 2-[6-(3,5-Difluorophenyl)-3-methyl-pyrrolo[3,2-b]pyridin-1-yl]-N-ethyl-N-methyl-acetamide]	126 nM
Cc1cn(CC(=O)N(C)C)c2cc(-c3ccc(F)cc3)cnc12 [Example 558, 2-[6-(4-Fluorophenyl)-3-methyl-pyrrolo[3,2-b]pyridin-1-yl]-N,N-dimethyl-acetamide]	79.4 nM
CCN(C)C(=O)Cn1cc(C)c2ncc(-c3ccc(F)cc3)cc21 [Example 559, N-Ethyl-2-[6-(4-fluorophenyl)-3-methyl-pyrrolo[3,2-b]pyridin-1-yl]-N-methyl-acetamide]	158 nM

Other lines, results leading:

IC50	Compound
126 nM	O=C(Cn1cc(Cl)c2ncc(-c3ccccc3F)cc21)N1CCC1 [Example 521, 1-(Azetidin-1-yl)-2-[3-chloro-6-(2-fluorophenyl)pyrrolo[3,2-b]pyridin-1-yl]ethanone]
79.4 nM	Cc1cccc(-c2cnc3c(Cl)cn(CC(=O)N4CCC4)c3c2)c1F [Example 522, 1-(Azetidin-1-yl)-2-[3-chloro-6-(2-fluoro-3-methyl-phenyl)pyrrolo[3,2-b]pyridin-1-yl]ethanone]
158 nM	O=C(Cn1cc(Cl)c2ncc(-c3ccc(F)c(C(F)(F)F)c3)cc21)N1CCC1 [Example 523, 1-(Azetidin-1-yl)-2-[3-chloro-6-[4-fluoro-3-(trifluoromethyl)phenyl]pyrrolo[3,2-b]pyridin-1-yl]ethanone]
79.4 nM	O=C(Cn1cc(Cl)c2ncc(-c3cccc(C(F)(F)F)c3F)cc21)N1CCC1 [Example 524, 1-(Azetidin-1-yl)-2-[3-chloro-6-[2-fluoro-3-(trifluoromethyl)phenyl]pyrrolo[3,2-b]pyridin-1-yl]ethanone]
50.1 nM	Cc1c(F)ccc(-c2cnc3c(Cl)cn(CC(=O)N4CCC4)c3c2)c1F [Example 525, 1-(Azetidin-1-yl)-2-[3-chloro-6-(2,4-difluoro-3-methyl-phenyl)pyrrolo[3,2-b]pyridin-1-yl]ethanone]
63.1 nM	O=C(Cn1cc(Cl)c2ncc(-c3cccc(Cl)c3)cc21)N1CCC1 [Example 526, 1-(Azetidin-1-yl)-2-[3-chloro-6-(3-chlorophenyl)pyrrolo[3,2-b]pyridin-1-yl]ethanone]
50.1 nM	O=C(Cn1cc(Cl)c2ncc(-c3ccc(F)c(Cl)c3)cc21)N1CCC1 [Example 527, 1-(Azetidin-1-yl)-2-[3-chloro-6-(3-chloro-4-fluoro-phenyl)pyrrolo[3,2-b]pyridin-1-yl]ethanone]
39.8 nM	O=C(Cn1cc(Cl)c2ncc(-c3cccc(Cl)c3F)cc21)N1CCC1 [Example 528, 1-(Azetidin-1-yl)-2-[3-chloro-6-(3-chloro-2-fluoro-phenyl)pyrrolo[3,2-b]pyridin-1-yl]ethanone]
79.4 nM	O=C(Cn1cc(Cl)c2ncc(-c3cccc(C(F)F)c3)cc21)N1CCC1 [Example 529, 1-(Azetidin-1-yl)-2-[3-chloro-6-[3-(difluoromethyl)phenyl]pyrrolo[3,2-b]pyridin-1-yl]ethanone]
39.8 nM	O=C(Cn1cc(Cl)c2ncc(-c3cccc(F)c3)cc21)N1CCC1 [Example 530, 1-(Azetidin-1-yl)-2-[3-chloro-6-(3-fluorophenyl)pyrrolo[3,2-b]pyridin-1-yl]ethanone]
50.1 nM	O=C(Cn1cc(Cl)c2ncc(-c3cc(F)cc(F)c3)cc21)N1CCC1 [Example 532, 1-(Azetidin-1-yl)-2-[3-chloro-6-(3,5-difluorophenyl)pyrrolo[3,2-b]pyridin-1-yl]ethanone]
50.1 nM	CCc1cccc(-c2cnc3c(Cl)cn(CC(=O)N4CCC4)c3c2)c1 [Example 533, 1-(Azetidin-1-yl)-2-[3-chloro-6-(3-ethylphenyl)pyrrolo[3,2-b]pyridin-1-yl]ethanone]
25.1 nM	O=C(Cn1cc(Cl)c2ncc(-c3ccc(F)c(Cl)c3)cc21)N1CC(F)C1 [Example 540, 2-[3-Chloro-6-(3-chloro-4-fluoro-phenyl)pyrrolo[3,2-b]pyridin-1-yl]-1-(3-fluoroazetidin-1-yl)ethanone]
79.4 nM	Cc1cn(CC(=O)N2CCC2)c2cc(-c3ccc(F)c(F)c3)cnc12 [Example 548, 1-(Azetidin-1-yl)-2-[6-(3,4-difluorophenyl)-3-methyl-pyrrolo[3,2-b]pyridin-1-yl]ethanone]
79.4 nM	Cc1cn(CC(=O)N2CCC2)c2cc(-c3cccc(C(F)(F)F)c3)cnc12 [Example 552, 1-(Azetidin-1-yl)-2-[3-methyl-6-[3-(trifluoromethyl)phenyl]pyrrolo[3,2-b]pyridin-1-yl]ethanone]

From patent US10377753B2, “Substituted 4-azaindoles and their use as GluN2B receptor modulators” (Janssen Pharmaceutica NV, priority 2015, dated 2019)
